Data from the CheMixHub viscosity set.
Values joined by “and” are separate entries in the source; they are usually repeats but may differ in a detail not shown here. Equal entries are not always repeated.

C=CC#N
Settings | viscosity
293.15 K, 101 kPa | 0.362 mPa·s
298.15 K, 101 kPa | 0.342 mPa·s
298.15 K, 101.33 kPa | 0.339 mPa·s
303.15 K, 101 kPa | 0.325 mPa·s
303.15 K, 101.3 kPa | 0.3111 mPa·s and 0.3111 mPa·s
303.15 K, 101.33 kPa | 0.324 mPa·s and 0.324 mPa·s and 0.326 mPa·s
307.4 K, 101.33 kPa | 0.76 mPa·s and 0.53 mPa·s and 0.584 mPa·s
308.15 K, 101 kPa | 0.3296 mPa·s
313.15 K, 101 kPa | 0.305 mPa·s
323.15 K, 101 kPa | 0.287 mPa·s

CC(C)(N)CO
viscosity
Settings | 298.15 K | 303.15 K | 308.15 K | 313.15 K | 318.15 K | 323.15 K
100 kPa | 132.3 mPa·s | 98.48 mPa·s | 69.98 mPa·s | 46.99 mPa·s | 32.2 mPa·s | 24.45 mPa·s
101 kPa | – | 89 mPa·s and 99.48 mPa·s | 60.8 mPa·s | 43.7 mPa·s and 47.25 mPa·s | 32.2 mPa·s | 23.05 mPa·s and 24.33 mPa·s

CC(CC(C)(C)C)CC(C)(C)C
viscosity [mPa·s]
Settings | 293.15 K | 298.15 K | 313.15 K | 323.15 K
101.33 kPa | – | 1.217 | – | –
102 kPa | 1.32 | – | 0.956 | 0.828

CC(CC(C)(C)C)CP(=O)([O-])CC(C)CC(C)(C)C.CCCCCCCCCCCCCC[P+](CCCCCC)(CCCCCC)CCCCCC
101 kPa
Settings | viscosity [mPa·s]
303.15 K | 757
313.15 K | 439
323.15 K | 264

CC1CCC(O)CC1 (stereo unspecified)
Settings | viscosity [mPa·s]
293.15 K, 101 kPa | 30.4

CCC(C)(C)O
viscosity
Settings | 298.15 K | 303.15 K | 308.15 K | 313.15 K | 318.15 K | 323.15 K
101 kPa | 3.506 mPa·s and 3.532 mPa·s and 4.413 mPa·s | – | – | – | 1.681 mPa·s | –
101.3 kPa | 3.52 mPa·s | 2.87 mPa·s | 2.37 mPa·s | 1.96 mPa·s | – | –
101.33 kPa | – | 2.854 mPa·s | – | 1.976 mPa·s | – | 1.416 mPa·s

CCCCC(C)O (stereo unspecified)
viscosity
Settings | 298.15 K | 303.15 K | 308.15 K | 313.15 K | 318.15 K
100 kPa | – | 3.29 mPa·s | 2.71 mPa·s | 2.28 mPa·s | 1.93 mPa·s
101.33 kPa | 4.047 mPa·s and 4.047 mPa·s | – | – | – | –

CCCCCCCCCCCCCCCCCC[P+](CCCC)(CCCC)CCCC.N#Cc1ccc[n-]1
100 kPa
Settings | viscosity [mPa·s]
293.15 K | 742
298.15 K | 519
303.15 K | 379
313.15 K | 208

CCCCCCc1ccccc1
Settings | viscosity [mPa·s]
303.15 K, 102 kPa | 1.4

CCCCN(CCCC)CCCC
viscosity
Settings | 293.15 K | 298.15 K | 303.15 K | 308.15 K | 313.15 K | 318.15 K | 323.15 K
100 kPa | – | – | 1.14 mPa·s and 1 mPa·s | 1.09 mPa·s | – | – | –
101 kPa | – | 1.273 mPa·s | 1.157 mPa·s and 1.155 mPa·s | 1.064 mPa·s and 1.069 mPa·s | 0.9845 mPa·s and 1 mPa·s | 0.9086 mPa·s | 0.8422 mPa·s
101.3 kPa | – | – | – | – | 0.9974 mPa·s | – | –
101.33 kPa | 1.45 mPa·s | 1.28 mPa·s | – | 1.07 mPa·s | 0.99 mPa·s | – | 0.863 mPa·s

CCCCOC(=O)c1ccccc1C(=O)OCCCC
Settings | viscosity [mPa·s]
303.15 K, 101.33 kPa | 13.33

CCCC[P+](CC)(CC)CC.N#Cc1ccc[n-]1
100 kPa
Settings | viscosity [mPa·s]
293.15 K | 187
298.15 K | 137
303.15 K | 104
313.15 K | 62

CC[N+](C)(CC)CCOC.O=S(=O)([N-]S(=O)(=O)C(F)(F)F)C(F)(F)F
101 kPa
Settings | viscosity [mPa·s]
293.15 K | 162.2
298.15 K | 119.2
303.15 K | 89.7
308.15 K | 67.72
313.15 K | 53.02
318.15 K | 40.98
323.15 K | 33.06

CC[n+]1cc[nH]c1.O=S(=O)([N-]S(=O)(=O)C(F)(F)F)C(F)(F)F
Settings | viscosity [mPa·s]
297.55 K, 101 kPa | 57.1

CN(C)c1ccccc1
viscosity
Settings | 100 kPa | 101 kPa | 101.3 kPa
293.15 K | 1.415 mPa·s | – | –
298 K | – | 1.283 mPa·s | 1.282 mPa·s
298.15 K | 1.302 mPa·s | – | –
303 K | – | 1.18 mPa·s | 1.177 mPa·s
303.15 K | 1.206 mPa·s | 1.18 mPa·s and 1.177 mPa·s and 1.203 mPa·s | –
308 K | – | 1.096 mPa·s | 1.1 mPa·s
308.15 K | 1.123 mPa·s | – | –
313 K | – | 1.02 mPa·s | 1.02 mPa·s
313.15 K | 1.056 mPa·s | – | –
313.35 K | – | 1.021 mPa·s | –
318 K | – | 0.968 mPa·s | 0.967 mPa·s
318.15 K | 0.9805 mPa·s | 0.931 mPa·s and 0.8294 mPa·s and 0.9484 mPa·s | –
323.15 K | 0.9197 mPa·s | 0.854 mPa·s | –

COC(C)OC
Settings | viscosity [mPa·s]
298.15 K, 101 kPa | 4.04

Cc1ccc(C(C)C)cc1
Settings | viscosity [mPa·s]
293.15 K, 101 kPa | 0.826

Cn1ccnc1
viscosity
Settings | 298.15 K | 308.15 K | 318.15 K
100 kPa | 1.778 mPa·s and 1.778 mPa·s | 1.482 mPa·s and 1.482 mPa·s | 1.267 mPa·s and 1.267 mPa·s
101 kPa | 1.68 mPa·s | 1.382 mPa·s and 1.415 mPa·s | 1.213 mPa·s

FC(F)(F)c1ccccc1
viscosity [mPa·s]
Settings | 298.15 K | 323.15 K
101 kPa | 0.53 | 0.46
101.33 kPa | 0.5524 | –

O=C1CCCCCO1
101 kPa
Settings | viscosity [mPa·s]
303.15 K | 4.885
308.15 K | 4.324
313.15 K | 3.818
318.15 K | 3.42

[2H]O[2H]
101 kPa
Settings | viscosity
293.15 K | 1.253 mPa·s
297.15 K | 1.128 mPa·s
299.15 K | 1.072 mPa·s
300.15 K | 0.994 mPa·s and 1.05 mPa·s
301.15 K | 1.026 mPa·s
302.15 K | 1 mPa·s
303.1 K | 0.973 mPa·s
303.15 K | 0.981 mPa·s
304.15 K | 0.964 mPa·s
305.15 K | 0.884 mPa·s and 0.942 mPa·s
306.15 K | 0.924 mPa·s
307.15 K | 0.901 mPa·s
308.15 K | 0.879 mPa·s
309.15 K | 0.861 mPa·s
310.15 K | 0.842 mPa·s
311.15 K | 0.826 mPa·s
312.15 K | 0.809 mPa·s
313.1 K | 0.785 mPa·s
313.15 K | 0.791 mPa·s
323.1 K | 0.649 mPa·s
